Reference: US12077503B2, “Substituted cyclic amides and their use as herbicides” (FMC CORPORATION, priority 2015, dated 2024)

Legend:
Type in all cases: in vivo
[1] = tested on: redroot pigweed (Amaranthus retroflexus); assay: Test G Post-Emergence Protocol; conditions: Amaranthus retroflexus, post-emergence, 312 h, read-out: Pigweed, Redroot damage rating; for pest or weed control at 15.625 g/ha: 15.625 g ai/ha, evaluated after 13 days (100=total damage to plant; 0=no damage to plant); for pest or weed control at 62.5 g/ha: 62.5 g ai/ha; for pest or weed control at 62.5 g/ha / pest or weed control at 250 g/ha: evaluated after 13 days, 100=total damage to plant, 0=no damage to plant; for pest or weed control at 250 g/ha: 250 g ai/ha
Method in brief: (§1)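 A glasshouse post-emergence test: 8-day-old plants sprayed at 15.625, 62.5 or 250 g/ha, then grown at 24/16 °C day/night with 14 h light and 65% humidity. Damage rated 13 days later, 0–100.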

corn (Zea mays) [2] = assay: Test G Post-Emergence Protocol; conditions: Zea mays, post-emergence, 312 h, read-out: Corn damage rating; for plant injury at 15.625 g/ha: 15.625 g ai/ha, evaluated after 13 days (100=total damage to plant; 0=no damage to plant); for plant injury at 62.5 g/ha: 62.5 g ai/ha; for plant injury at 62.5 g/ha / plant injury at 250 g/ha: evaluated after 13 days, 100=total damage to plant, 0=no damage to plant; for plant injury at 250 g/ha: 250 g ai/ha
Method in brief: as §1

[3] = tested on: ivy-leaved morning glory (Ipomoea hederacea); assay: Test G Post-Emergence Protocol; conditions: Ipomoea, post-emergence, 312 h, read-out: Morningglory, Ivy-leaved damage rating; for pest or weed control at 15.625 g/ha: 15.625 g ai/ha, evaluated after 13 days (100=total damage to plant; 0=no damage to plant); for pest or weed control at 62.5 g/ha: 62.5 g ai/ha; for pest or weed control at 62.5 g/ha / pest or weed control at 250 g/ha: evaluated after 13 days, 100=total damage to plant, 0=no damage to plant; for pest or weed control at 250 g/ha: 250 g ai/ha
Method in brief: as §1

[4] = tested on: velvetleaf (Abutilon theophrasti); assay: Test G Post-Emergence Protocol; conditions: Abutilon theophrasti, post-emergence, 312 h, read-out: Velvetleaf damage rating; for pest or weed control at 15.625 g/ha: 15.625 g ai/ha, evaluated after 13 days (100=total damage to plant; 0=no damage to plant); for pest or weed control at 62.5 g/ha: 62.5 g ai/ha; for pest or weed control at 62.5 g/ha / pest or weed control at 250 g/ha: evaluated after 13 days, 100=total damage to plant, 0=no damage to plant; for pest or weed control at 250 g/ha: 250 g ai/ha
Method in brief: as §1

[5] = tested on: barnyardgrass (Echinochloa crus-galli); assay: Test G Post-Emergence Protocol; conditions: Echinochloa crus-galli, post-emergence, 312 h, read-out: Barnyardgrass damage rating; for pest or weed control at 15.625 g/ha: 15.625 g ai/ha, evaluated after 13 days (100=total damage to plant; 0=no damage to plant); for pest or weed control at 62.5 g/ha: 62.5 g ai/ha; for pest or weed control at 62.5 g/ha / pest or weed control at 250 g/ha: evaluated after 13 days, 100=total damage to plant, 0=no damage to plant; for pest or weed control at 250 g/ha: 250 g ai/ha
Method in brief: as §1

[6] = tested on: giant foxtail (Setaria faberi); assay: Test G Post-Emergence Protocol; conditions: Setaria faberi, post-emergence, 312 h, read-out: Foxtail, Giant damage rating; for pest or weed control at 15.625 g/ha: 15.625 g ai/ha, evaluated after 13 days (100=total damage to plant; 0=no damage to plant); for pest or weed control at 62.5 g/ha: 62.5 g ai/ha
Method in brief: as §1

[7] = tested on: redroot pigweed (Amaranthus retroflexus); assay: Test G Pre-Emergence Protocol; conditions: Amaranthus retroflexus, pre-emergence, 312 h, evaluated after 13 days; for pest or weed control at 15.625 g/ha: 15.625 g ai/ha; for pest or weed control at 15.625 g/ha / pest or weed control at 250 g/ha: read-out: Pigweed, Redroot damage rating (100=total damage to plant; 0=no damage to plant); for pest or weed control at 62.5 g/ha: 62.5 g ai/ha, 100=total damage to plant, 0=no damage to plant, read-out: Pigweed, Redroot damage rating; for pest or weed control at 250 g/ha: 250 g ai/ha
Method in brief: (§2)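 Under a 24/16° C day/night regime with 14 h light and 65% humidity, sown pots were sprayed after one day with compound (15.625, 62.5 or 250 g/ha; 50:50 acetone/water, 0.5% Tween 20). Damage was assessed visually 13 days later, 0 to 100.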

corn (Zea mays) [8] = assay: Test G Pre-Emergence Protocol; conditions: Zea mays, pre-emergence, 312 h, evaluated after 13 days; for plant injury at 15.625 g/ha: 15.625 g ai/ha; for plant injury at 15.625 g/ha / plant injury at 250 g/ha: read-out: Corn damage rating (100=total damage to plant; 0=no damage to plant); for plant injury at 62.5 g/ha: 62.5 g ai/ha, 100=total damage to plant, 0=no damage to plant, read-out: Corn damage rating; for plant injury at 250 g/ha: 250 g ai/ha
Method in brief: as §2

[9] = tested on: ivy-leaved morning glory (Ipomoea hederacea); assay: Test G Pre-Emergence Protocol; conditions: Ipomoea, pre-emergence, 312 h, evaluated after 13 days; for pest or weed control at 15.625 g/ha: 15.625 g ai/ha; for pest or weed control at 15.625 g/ha / pest or weed control at 250 g/ha: read-out: Morningglory, Ivy-leaved damage rating (100=total damage to plant; 0=no damage to plant); for pest or weed control at 62.5 g/ha: 62.5 g ai/ha, 100=total damage to plant, 0=no damage to plant, read-out: Morningglory, Ivy-leaved damage rating; for pest or weed control at 250 g/ha: 250 g ai/ha
Method in brief: as §2

[10] = tested on: velvetleaf (Abutilon theophrasti); assay: Test G Pre-Emergence Protocol; conditions: Abutilon theophrasti, pre-emergence, 312 h, evaluated after 13 days; for pest or weed control at 15.625 g/ha: 15.625 g ai/ha; for pest or weed control at 15.625 g/ha / pest or weed control at 250 g/ha: read-out: Velvetleaf damage rating (100=total damage to plant; 0=no damage to plant); for pest or weed control at 62.5 g/ha: 62.5 g ai/ha, 100=total damage to plant, 0=no damage to plant, read-out: Velvetleaf damage rating; for pest or weed control at 250 g/ha: 250 g ai/ha
Method in brief: as §2

[11] = tested on: barnyardgrass (Echinochloa crus-galli); assay: Test G Pre-Emergence Protocol; conditions: Echinochloa crus-galli, pre-emergence, 312 h, evaluated after 13 days; for pest or weed control at 15.625 g/ha: 15.625 g ai/ha; for pest or weed control at 15.625 g/ha / pest or weed control at 250 g/ha: read-out: Barnyardgrass damage rating (100=total damage to plant; 0=no damage to plant); for pest or weed control at 62.5 g/ha: 62.5 g ai/ha, 100=total damage to plant, 0=no damage to plant, read-out: Barnyardgrass damage rating; for pest or weed control at 250 g/ha: 250 g ai/ha
Method in brief: as §2

[12] = tested on: giant foxtail (Setaria faberi); assay: Test G Pre-Emergence Protocol; conditions: Setaria faberi, pre-emergence, 312 h, evaluated after 13 days; for pest or weed control at 15.625 g/ha: 15.625 g ai/ha; for pest or weed control at 15.625 g/ha / pest or weed control at 250 g/ha: read-out: Foxtail, Giant damage rating (100=total damage to plant; 0=no damage to plant); for pest or weed control at 62.5 g/ha: 62.5 g ai/ha, 100=total damage to plant, 0=no damage to plant, read-out: Foxtail, Giant damage rating; for pest or weed control at 250 g/ha: 250 g ai/ha
Method in brief: as §2

[13] = evaluated after 13 days, 100=total damage to plant, 0=no damage to plant

SMILES	pest or weed control at 15.625 g/ha [1]	pest or weed control at 62.5 g/ha [1]	pest or weed control at 250 g/ha [1]	plant injury at 15.625 g/ha (corn (Zea mays) [2])	plant injury at 62.5 g/ha (corn (Zea mays) [2])	plant injury at 250 g/ha (corn (Zea mays) [2])	pest or weed control at 15.625 g/ha [3]	pest or weed control at 62.5 g/ha [3]	pest or weed control at 250 g/ha [3]	pest or weed control at 15.625 g/ha [4]	pest or weed control at 62.5 g/ha [4]	pest or weed control at 250 g/ha [4]	pest or weed control at 15.625 g/ha [5]	pest or weed control at 62.5 g/ha [5]	pest or weed control at 250 g/ha [5]	pest or weed control at 15.625 g/ha [6]	pest or weed control at 62.5 g/ha [6, 13]	pest or weed control at 15.625 g/ha [7]	pest or weed control at 62.5 g/ha [7]	pest or weed control at 250 g/ha [7]	further results
Cc1ccc(C2CN(C)C(=O)C2C(=O)Nc2cccc(F)c2F)cc1C#N (centres unmarked) [Compound 1687]	40%	40%	50%	10%	40%	90%	20%	60%	70%	40%	40%	50%	0%	50%	80%	60%	80%	0%	10%	30%	pest or weed control at 250 g/ha ([6]; 250 g ai/ha, evaluated after 13 days, 100=total damage to plant, 0=no damage to plant): 80%; plant injury at 15.625 g/ha (corn (Zea mays) [8]): 0%; plant injury at 62.5 g/ha (corn (Zea mays) [8]): 40%; plant injury at 250 g/ha (corn (Zea mays) [8]): 90%; pest or weed control at 15.625 g/ha [9]: 0%; pest or weed control at 62.5 g/ha [9]: 40%; pest or weed control at 250 g/ha [9]: 50%; pest or weed control at 15.625 g/ha [10]: 0%; pest or weed control at 62.5 g/ha [10]: 0%; pest or weed control at 250 g/ha [10]: 10%; pest or weed control at 15.625 g/ha [11]: 40%; pest or weed control at 62.5 g/ha [11]: 70%; pest or weed control at 250 g/ha [11]: 80%; pest or weed control at 15.625 g/ha [12]: 60%; pest or weed control at 62.5 g/ha [12]: 70%; pest or weed control at 250 g/ha [12]: 90%
COc1ccc(C2CN(C)C(=O)C2C(=O)Nc2cccc(F)c2F)cc1C (centres unmarked) [Compound 1688]	0%	0%	10%	0%	30%	60%	0%	20%	60%	0%	0%	10%	30%	70%	90%	60%	80%	30%	20%	60%	plant injury at 15.625 g/ha (corn (Zea mays) [8]): 0%; plant injury at 62.5 g/ha (corn (Zea mays) [8]): 50%; plant injury at 250 g/ha (corn (Zea mays) [8]): 70%; pest or weed control at 15.625 g/ha [9]: 0%; pest or weed control at 62.5 g/ha [9]: 0%; pest or weed control at 250 g/ha [9]: 10%; pest or weed control at 15.625 g/ha [10]: 10%; pest or weed control at 62.5 g/ha [10]: 0%; pest or weed control at 250 g/ha [10]: 50%; pest or weed control at 15.625 g/ha [11]: 50%; pest or weed control at 62.5 g/ha [11]: 70%; pest or weed control at 250 g/ha [11]: 90%; pest or weed control at 15.625 g/ha [12]: 70%; pest or weed control at 62.5 g/ha [12]: 80%; pest or weed control at 250 g/ha [12]: 90%
